Results taken from BindingDB's records for doi:10.1016/j.bmcl.2012.09.081 (2012).
pIC50: −log10 of the molar value.

Assay: Inhibition of tobacco hornworm V-ATPase c subunit

With CNC(=O)O[C@@H](CC(C)C)c1nc([C@H]2OC(=O)/C(C)=C/C/C(C)=C/[C@@H](OC(=O)c3ccc(C4(C(F)(F)F)N=N4)cc3)[C@@H](C)\C=C(C)/C=C(C)\C=C\[C@@H](OC(=O)c3ccc(C4(C(F)(F)F)N=N4)cc3)[C@H](C)[C@H](OC)/C(C)=C/C=C/[C@@H]2C)cs1 as the compound, how does the pIC50 read?
Its pIC50 is 6.22.
